For one series, the system named is MHC-I. Kind of series: MHC-I expression in TC1/A9 murine lung tumor cells. As to conditions: FIG. 11A. Format: cell-based. Here is the method: (§1) Curcuphenol and four curcuphenol analogs (see FIG. 10) were synthesized and tested for the ability to increase MHC-I expression in TC1/A9 murine lung tumor cells. Toxicity was also measured by propidium iodide (PI) exclusion.

Series [1] deals with TC1/A9 murine lung tumor cells. Kind of series: Cell toxicity in A9 cells by PI exclusion and intact cell number. As to conditions: FIG. 11B. Format: cell-based. How it is done:
as §1

For `CC(C)=CCCCc1ccc(C)cc1O` [PC-02/113], the “MHC-I expression relative to controls” value in the series with MHC-I was “significantly increasing MHC-I expression”. Further, in series [1], the “toxicity by propidium iodide (PI) exclusion and intact cell number” value is given as “acceptable levels of toxicity”.

Take `CC(C)=CCC[C@H](C)c1ccc(C)cc1O` (stereo in doubt) [curcuphenol, phenol,2-(1,5-dimethyl-4-hexenyl)-5-methyl-, (S)—]: the “MHC-I expression relative to controls” value in the series on MHC-I is recorded as “significantly increasing MHC-I expression”. In addition, in series [1], the “toxicity by propidium iodide (PI) exclusion and intact cell number” value is listed as “acceptable levels of toxicity”.

(Values after US12011421B2, “Curcuphenol compounds for increasing MHC-I expression” (Cava Healthcare Inc., priority 2013, dated 2024).)
